Tests used:
[1] = test system: queT (41 nt) (RNA, riboswitch) ACGUGGUUCAUUCAUACCAUCCCACGUAAAAAAACUAGGAG; assay: 1H NMR imino spectra; conditions: 25 mM NaCl, 2 mM MgCl2; 15 mM sodium cacodylate pH 6.5, 25 °C, 0.15 mM RNA
[2] = test system: preQ1-like (40 nt, lmo2684 upstream region) (RNA, mRNA element) UACAGCUAGCUAGCUGAAAAUUAUAAAAAACUAAAGAGGU; assay: 1H NMR imino spectra; conditions: 25 mM NaCl, 2 mM MgCl2; 15 mM sodium cacodylate pH 6.5, 25 °C, 0.15 mM RNA; no high affinity association
[3] = test system: Tte preQ1 U22Ap (RNA, riboswitch, 2-aminopurine at 22 (replaces U)) CUGGGUCGCAGUAACCCCAGUUAACAAAACAAG; assay: 2-aminopurine fluorescence titration; conditions: 100 mM KCl, 2 mM MgCl2; 50 mM MOPS pH 7.5, 25 °C, 0.5 µM RNA
[4] = test system: Tte preQ1 U22Ap (RNA, riboswitch, 2-aminopurine at 22 (replaces U)) CUGGGUCGCAGUAACCCCAGUUAACAAAACAAG; assay: stopped-flow 2-aminopurine fluorescence; conditions: 100 mM KCl, 2 mM MgCl2; 50 mM MOPS pH 7.5, 25 °C
[5] = test system: Tte preQ1 U22Ap (RNA, riboswitch, 2-aminopurine at 22 (replaces U)) CUGGGUCGCAGUAACCCCAGUUAACAAAACAAG; assay: stopped-flow 2-aminopurine fluorescence; koff = kon × KD; conditions: 100 mM KCl, 2 mM MgCl2; 50 mM MOPS pH 7.5, 25 °C; calculated, one approximate value for preQ1 and 4a

## NCc1c[nH]c2nc(N)[nH]c(=O)c12
[1]
  binding: yes
[2]
  binding: no
[3]
  KD(preQ1): 64 nM
[4]
  kon(preQ1): 13000 M⁻¹ s⁻¹
[5]
  koff: ~ 7.5 × 10^−4 s^−1

Reference: PMC12519234 (2025)
